Measurements as given in US9908897B2, “Spirocyclic derivatives” (CHRONOS THERAPEUTICS LIMITED, priority 2014, dated 2018).

Columns and labels:
[1] = biological target: human dopamine transporter (DAT) (Homo sapiens (Human), UniProt Q01959); assay: Scintillation Proximity Assay (SPA) competition binding, human DAT; conditions: recombinant hDAT-CHO membranes, [3H]WIN-35,428
Summary of the method: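 SPA binding on membranes from CHO cells stably expressing human DAT, with 5 nM [3H]WIN-35,428, WGA-PVT beads and 0.02% BSA in HEPES/NaCl/KCl buffer pH 7.4.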

[2] = biological target: human norepinephrine transporter (NET) (Homo sapiens (Human), UniProt P23975); assay: Scintillation Proximity Assay (SPA) competition binding, human NET; conditions: recombinant hNET-CHO membranes, [3H]nisoxetine
Chain of human norepinephrine transporter (NET) (P23975 whole entry): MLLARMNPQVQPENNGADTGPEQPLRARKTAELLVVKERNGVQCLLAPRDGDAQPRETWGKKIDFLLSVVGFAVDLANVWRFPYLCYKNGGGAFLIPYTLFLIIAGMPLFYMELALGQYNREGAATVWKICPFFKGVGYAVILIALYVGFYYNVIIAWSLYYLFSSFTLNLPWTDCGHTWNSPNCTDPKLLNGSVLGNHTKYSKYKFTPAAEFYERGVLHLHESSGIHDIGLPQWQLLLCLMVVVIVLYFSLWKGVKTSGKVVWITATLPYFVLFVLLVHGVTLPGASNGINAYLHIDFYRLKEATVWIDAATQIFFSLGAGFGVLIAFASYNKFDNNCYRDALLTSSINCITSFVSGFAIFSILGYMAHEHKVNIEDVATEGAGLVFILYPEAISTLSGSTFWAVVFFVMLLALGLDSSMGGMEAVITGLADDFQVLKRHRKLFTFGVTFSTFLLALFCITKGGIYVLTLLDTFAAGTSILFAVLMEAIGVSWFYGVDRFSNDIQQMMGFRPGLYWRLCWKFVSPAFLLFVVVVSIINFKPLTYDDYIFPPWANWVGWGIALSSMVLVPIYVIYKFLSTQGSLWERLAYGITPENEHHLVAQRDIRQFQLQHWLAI

[3] = biological target: human serotonin transporter (SERT) (Homo sapiens (Human), UniProt P31645); assay: Scintillation Proximity Assay (SPA) competition binding, human SERT; conditions: recombinant hSERT-CHO membranes, [3H]citalopram
Chain of human serotonin transporter (SERT) (P31645 whole entry): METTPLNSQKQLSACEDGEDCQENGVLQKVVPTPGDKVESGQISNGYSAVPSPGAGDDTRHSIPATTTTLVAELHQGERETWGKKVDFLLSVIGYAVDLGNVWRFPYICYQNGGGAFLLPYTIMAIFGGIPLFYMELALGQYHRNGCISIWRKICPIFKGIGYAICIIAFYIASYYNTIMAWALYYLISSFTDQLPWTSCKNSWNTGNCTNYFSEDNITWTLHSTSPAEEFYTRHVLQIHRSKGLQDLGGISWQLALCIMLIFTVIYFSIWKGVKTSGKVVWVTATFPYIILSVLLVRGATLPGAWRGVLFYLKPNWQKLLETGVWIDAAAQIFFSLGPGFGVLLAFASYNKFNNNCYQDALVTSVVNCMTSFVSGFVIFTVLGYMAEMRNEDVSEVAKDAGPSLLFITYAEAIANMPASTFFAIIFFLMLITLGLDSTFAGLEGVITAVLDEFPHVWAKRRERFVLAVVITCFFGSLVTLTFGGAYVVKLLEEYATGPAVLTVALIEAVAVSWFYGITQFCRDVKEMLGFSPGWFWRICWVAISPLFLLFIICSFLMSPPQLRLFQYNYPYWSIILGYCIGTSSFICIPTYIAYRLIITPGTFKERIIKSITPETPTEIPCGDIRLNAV

[4] = biological target: human ERG potassium channel (hERG) (Homo sapiens (Human), UniProt Q12809); assay: hERG tail current recording, Rapid ICE automated patch-clamp; assay type: cell-based; conditions: HEK293 cells stably transfected with hERG
Chain of human ERG potassium channel (hERG) (Q12809 whole entry): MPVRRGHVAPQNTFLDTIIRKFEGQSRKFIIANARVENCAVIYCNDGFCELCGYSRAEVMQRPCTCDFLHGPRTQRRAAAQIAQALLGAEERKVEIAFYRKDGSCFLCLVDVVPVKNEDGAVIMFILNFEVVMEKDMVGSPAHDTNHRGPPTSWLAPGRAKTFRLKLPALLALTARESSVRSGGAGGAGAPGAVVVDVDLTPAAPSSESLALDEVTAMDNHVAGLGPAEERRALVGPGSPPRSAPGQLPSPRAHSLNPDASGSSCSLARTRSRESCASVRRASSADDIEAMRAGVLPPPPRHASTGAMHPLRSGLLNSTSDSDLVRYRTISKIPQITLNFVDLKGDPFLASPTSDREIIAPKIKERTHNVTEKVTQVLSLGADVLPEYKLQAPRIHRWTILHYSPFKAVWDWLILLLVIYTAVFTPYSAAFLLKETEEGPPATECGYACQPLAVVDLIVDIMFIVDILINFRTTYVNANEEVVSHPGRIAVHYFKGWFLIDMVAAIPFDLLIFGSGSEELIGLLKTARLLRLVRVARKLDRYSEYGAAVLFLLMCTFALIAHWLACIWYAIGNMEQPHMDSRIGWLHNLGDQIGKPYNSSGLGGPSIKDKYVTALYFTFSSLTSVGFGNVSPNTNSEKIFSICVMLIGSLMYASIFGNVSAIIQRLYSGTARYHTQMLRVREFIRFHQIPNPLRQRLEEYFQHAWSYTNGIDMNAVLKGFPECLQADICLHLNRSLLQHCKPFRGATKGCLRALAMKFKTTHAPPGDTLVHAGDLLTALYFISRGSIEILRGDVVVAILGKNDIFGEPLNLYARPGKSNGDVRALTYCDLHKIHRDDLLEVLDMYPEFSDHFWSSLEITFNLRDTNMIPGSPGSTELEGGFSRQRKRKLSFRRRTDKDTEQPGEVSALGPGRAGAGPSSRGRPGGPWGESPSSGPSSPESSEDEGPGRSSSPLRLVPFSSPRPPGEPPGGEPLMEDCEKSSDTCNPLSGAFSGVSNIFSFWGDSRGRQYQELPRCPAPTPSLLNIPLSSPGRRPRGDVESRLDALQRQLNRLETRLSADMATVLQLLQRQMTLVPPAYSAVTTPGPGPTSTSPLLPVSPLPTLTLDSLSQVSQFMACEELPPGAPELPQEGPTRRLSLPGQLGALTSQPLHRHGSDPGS
Method: Measure of the Effect on hERG Channel by Tail Current Recording Using In Vitro Rapid ICE™
The potency of the compounds of the invention in inhibiting human ERG potassium channel (hERG) tail current is assessed in a recombinant HEK293 cell line stably transfected with hERG cDNA using Rapid ICE™ (Rapid Ion Channel Electrophysiology) assay. Rapid ICE™ is an automated patch-clamp assay utilizing the PatchXpress 7000A system (Molecular Devices Corporation) or the QPatch HTX system (Sophion Bioscience A/S).
Briefly cells are cultivated for 24 to 72 hours before recordings in minimum essential medium supplemented with 10% FBS, 1% non-essential amino acids, 1% sodium pyruvate, 2 mM L-glutamine. The day of the experiment cells are detached with TrypLE and prepared to be loaded on the instrument. For PatchXpress cells are finally resuspended in 150 μl of Extracellular Buffer whereas for QPatch cells are resuspended in 7 ml Serum-Free Media containing 25 mM Hepes and Soybean trypsin inhibitor and immediately placed in the cell storage tank of the machine. The composition of the Extracellular Buffer is (mM): NaCl 137; KCl 4; CaCl2 1.8; MgCl2 1.0; D-glucose 10; N 2 hydroxyethylpiperazine-N′-2-ethanesulfonic acid (HEPES) 10; pH 7.4 with 1 M NaOH. The composition of the pipette solution is (mM): KCl 130; MgCl2 1.0; Ethylene glycol-bis(β-aminoethyl ether)-N,N,N′,N′-tetraacetic acid (EGTA) 5; MgATP 5; HEPES 10; pH 7.2 with 1 M KOH. The voltage protocol includes the following steps: step from −80 mV to −50 mV for 200 ms, +20 mV for 4.8 s, step to −50 mV for 5 s then step to the holding potential of −80 mV. Compounds of the invention are dissolved in DMSO and diluted in Extracellular Buffer to achieve final test concentrations (0.1, 1 and 10 μM) in 0.1% DMSO. The voltage protocol is run and recorded continuously during the experiment. The vehicle, corresponding to 0.1% DMSO in Extracellular Buffer, is then applied for 3 min followed by the test substance in triplicate. The standard combined exposure time is 5 min. The average of tail current amplitude values recorded from 4 sequential voltage pulses is used to calculate for each cell the effect of the test substance by calculating the residual current (% control) compared with vehicle pre-treatment. Data are reported as % inhibition for each concentration tested and IC50 values are estimated using DataXpress or QPatch software. At least two cells are tested, more if results diverge.

Chain of human dopamine transporter (DAT) (Q01959 whole entry): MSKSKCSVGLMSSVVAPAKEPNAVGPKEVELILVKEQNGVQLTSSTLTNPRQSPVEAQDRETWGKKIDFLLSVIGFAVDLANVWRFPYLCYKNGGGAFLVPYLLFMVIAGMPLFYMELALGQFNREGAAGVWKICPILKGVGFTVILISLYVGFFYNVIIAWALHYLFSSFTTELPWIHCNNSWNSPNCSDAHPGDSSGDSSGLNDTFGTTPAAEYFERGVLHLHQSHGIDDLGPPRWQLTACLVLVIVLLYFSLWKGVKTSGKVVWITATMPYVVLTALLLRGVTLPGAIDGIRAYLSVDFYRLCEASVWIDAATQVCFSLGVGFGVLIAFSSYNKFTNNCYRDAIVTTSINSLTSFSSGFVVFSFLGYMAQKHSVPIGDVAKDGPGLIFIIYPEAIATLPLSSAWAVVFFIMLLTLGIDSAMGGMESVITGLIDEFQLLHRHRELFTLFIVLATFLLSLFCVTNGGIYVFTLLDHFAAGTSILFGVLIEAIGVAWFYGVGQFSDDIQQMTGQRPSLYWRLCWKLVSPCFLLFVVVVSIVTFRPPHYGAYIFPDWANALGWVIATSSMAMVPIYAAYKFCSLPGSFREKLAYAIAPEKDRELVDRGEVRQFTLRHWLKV

| SMILES | pIC50 DAT [1] | pIC50 NET [2] | pIC50 SERT [3] | pIC50 hERG [4] | IC50 [3] |
| --- | --- | --- | --- | --- | --- |
| Fc1cccc(Oc2cc(F)cc(N3CCC4(CC3)CNCCO4)c2F)c1 [Example 21, 9-[2,5-difluoro-3-(3-fluorophenoxy)phenyl]-1-oxa-4,9-diazaspiro[5.5]undecane] | 9.11 | 7.49 | 6.48 | 5.4 | – |
| O=S1(=O)CCNCC12CCN(c1cc(F)c(F)cc1Oc1cccc(F)c1)CC2 [Example 71, 9-[4,5-difluoro-2-(3-fluorophenoxy)phenyl]-1λ^6-thia-4,9-diazaspiro[5.5]undecane-1,1-dione] | 6.22 | 4.82 | 4.55 | 5.1 | – |
| Fc1cccc(Oc2cc(F)c(F)cc2N2CCC3(CCNCC3)CC2)c1 [Example 82, 3-[4,5-difluoro-2-(3-fluorophenoxy)phenyl]-3,9-diazaspiro[5.5]undecane] | 8.14 | 6.10 | 8.00 | 6.0 | – |
| Cc1cc(Oc2cccc(C#N)c2)nc(N2CCC3(CC2)CNCCO3)n1.Cl [Example 46, 3-[(6-methyl-2-{1-oxa-4,9-diazaspiro[5.5]undecan-9-yl}pyrimidin-4-yl)oxy]benzonitrile hydrochloride] | 8.03 | 5.85 | 6.11 | 6.6 | – |
| O=C1NCC2(CCN(c3nc(Oc4cccc(F)c4)cc(C(F)(F)F)n3)CC2)O1 [Example 89, 8-[4-(3-fluorophenoxy)-6-(trifluoromethyl)pyrimidin-2-yl]-1-oxa-3,8-diazaspiro[4.5]decan-2-one] | 7.73 | 5.66 | 4.89 | 5.7 | – |
| Fc1cccc(Oc2cccc(N3CCC4(CC3)CNCCO4)c2)c1 [Example 7, 9-[3-(3-fluorophenoxy)phenyl]-1-oxa-4,9-diazaspiro[5.5]undecane] | 7.54 | 6.33 | 5.99 | 5.8 | – |
| Fc1cccc(Oc2cc(F)c(F)cc2N2CCC3(CCCNC3)C2)c1 (stereo not shown) [Example 84, 2-[4,5-difluoro-2-(3-fluorophenoxy)phenyl]-2,7-diazaspiro[4.5]decane] | 7.94 | 6.76 | 6.33 | 6.6 | – |
| O=S1(=O)CCNCC12CCN(c1nc(Oc3cccc(F)c3)cc(C(F)(F)F)n1)CC2 [Example 72, 9-[4-(3-fluorophenoxy)-6-(trifluoromethyl)pyrimidin-2-yl]-1λ^6-thia-4,9-diazaspiro[5.5]undecane-1,1-dione] | 7.08 | 4.92 | – | 5.5 | > 100 µM |
| COc1cc(Oc2cccc(F)c2)nc(N2CCC3(CC2)CNCCO3)n1.Cl [Example 66, 9-[4-(3-fluorophenoxy)-6-methoxypyrimidin-2-yl]-1-oxa-4,9 diazaspiro[5.5]undecane hydrochloride] | 8.29 | 6.52 | 5.27 | 5.7 | – |
| Fc1c(Oc2ccccc2)cccc1N1CCC2(CC1)CNCCO2 [Example 17, 9-(2-fluoro-3-phenoxyphenyl)-1-oxa-4,9-diazaspiro[5.5]undecane] | 8.42 | 6.46 | 5.65 | 5.4 | – |
| Fc1cccc(Oc2cc(F)c(F)cc2N2CCC3(CCNCC34OCCO4)C2)c1 (stereo not shown) [Example 93, 8-[4,5-difluoro-2-(3-fluorophenoxy)phenyl]-1,4-dioxa-8,13-diazadispiro[4.0.4^6.4^5]tetradecane] | 8.44 | 6.64 | 6.90 | 6.0 | – |
| Cl.Fc1cccc(Oc2cncc(N3CCC4(CC3)CNCCO4)n2)c1 [Example 41, 9-[6-(3-fluorophenoxy)pyrazin-2-yl]-1-oxa-4,9-diazaspiro[5.5]undecane hydrochloride] | 7.44 | 5.33 | 6.02 | 5.9 | – |
| Fc1cccc(Oc2cc(C(F)(F)F)nc(N3CCC4(CNCCC45OCCO5)C3)n2)c1 (stereo not shown) [Example 87, 8-[4-(3-fluorophenoxy)-6-(trifluoromethyl)pyrimidin-2-yl]-1,4-dioxa-8,12-diazadispiro[4.0.4^6.4^5]tetradecane] | 8.67 | 6.82 | 5.43 | 6.0 | – |
| COc1cccc(Oc2cc(C)nc(N3CCC4(CC3)CNCCO4)n2)c1.Cl [Example 49, 9-[4-(3-methoxyphenoxy)-6-methylpyrimidin-2-yl]-1-oxa-4,9-diazaspiro[5.5]undecane hydrochloride] | 6.92 | 5.45 | 4.67 | 5.5 | – |
| N#Cc1cc(Oc2ccccc2)cc(N2CCC3(CC2)CNCCO3)c1 [Example 25, 3-{1-oxa-4,9-diazaspiro[5.5]undecan-9-yl}-5-phenoxybenzonitrile] | 8.66 | 7.19 | 7.43 | 6.1 | – |
| Fc1cccc(Oc2cc(F)cc(N3CCC4(CCNC4)CC3)c2)c1 [Example 92, 8-[3-fluoro-5-(3-fluorophenoxy)phenyl]-2,8-diazaspiro[4.5]decane] | 8.84 | 7.33 | 7.37 | 6.2 | – |
| Fc1cccc(Oc2cc(F)c(F)c(N3CCC4(CC3)CNCCO4)c2)c1 [Example 13, 9-[2,3-difluoro-5-(3-fluorophenoxy)phenyl]-1-oxa-4,9-diazaspiro[5.5]undecane] | 8.38 | 6.74 | 6.33 | 5.6 | – |
| Cc1cc(Oc2ccccc2)nc(N2CCC3(CC2)CNCCO3)n1.Cl [Example 43, 9-(4-methyl-6-phenoxypyrimidin-2-yl)-1-oxa-4,9-diazaspiro[5.5]undecane hydrochloride] | 8.01 | 6.11 | 4.42 | 5.7 | – |
| Cl.Fc1cccc(Oc2cc(C3CC3)nc(N3CCC4(CC3)CNCCO4)n2)c1 [Example 65, 9-[4-cyclopropyl-6-(3-fluorophenoxy)pyrimidin-2-yl]-1-oxa-4,9-diazaspiro[5.5]undecane hydrochloride] | 8.79 | 7.08 | 5.44 | 5.7 | – |
| Cl.FC(F)(F)c1cc(Oc2ccccc2)nc(N2CCC3(CC2)CNCCO3)n1 [Example 55, 9-[4-phenoxy-6-(trifluoromethyl)pyrimidin-2-yl]-1-oxa-4,9-diazaspiro[5.5]undecane hydrochloride] | 8.19 | 6.12 | 6.14 | 5.7 | – |
| Fc1cccc(Oc2cc(F)c(F)cc2N2CCC3(CC2)CNCCO3)c1 [Example 1, 9-[4,5-difluoro-2-(3-fluorophenoxy)phenyl]-1-oxa-4,9-diazaspiro[5.5]undecane] | 7.96 | 5.69 | 6.44 | 6.0 | – |
| Fc1cccc(Oc2ccc(F)c(N3CCC4(CC3)CNCCO4)c2)c1 [Example 10, 9-[2-fluoro-5-(3-fluorophenoxy)phenyl]-1-oxa-4,9-diazaspiro[5.5]undecane] | 7.56 | 6.07 | 5.32 | 5.6 | – |
